Measurements published in PubChem BioAssay AID1963444 (Molecular Pharmacology Branch, DTP, NCI, 2024).
pIC50: −log10 of the molar value.

Test system: HSSY-II complex spheroid growth, percent test/control
Experiment: Anticancer human tumor HSSY-II cell line growth inhibition [Asc];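 further: spheroids exposed to drug for 7 days before reading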
Conditions: for pIC50: curve of first compound; for viability, T/C: stronger effect = lower value
In short: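 Complex solid-tumor spheroids incorporating human endothelial and mesenchymal stem cells received single agents or combinations over half-log dilution ranges anchored to clinical Cmax.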

[1] = second compound 0.1 µM, first compound 0.0316 µM
[2] = second compound 0.1 µM, first compound 0.1 µM
[3] = second compound 0.1 µM, first compound 0.316 µM
[4] = second compound 0.1 µM, first compound 1 µM
[5] = second compound 0.316 µM, first compound 0.0316 µM
[6] = second compound 0.316 µM, first compound 0.1 µM
[7] = second compound 0.316 µM, first compound 0.316 µM
[8] = second compound 0.316 µM, first compound 1 µM
[9] = second compound 1 µM, first compound 0.0316 µM
[10] = second compound 1 µM, first compound 0.1 µM
[11] = second compound 1 µM, first compound 0.316 µM
[12] = second compound 1 µM, first compound 1 µM

Work on COc1c(OCCCN2CCOCC2)ccc2c3n(c(=NC(=O)c4cnc(N)nc4)nc12)CCN3 + Cc1c(S(C)(=O)=O)c(-c2cc(F)cc(N3CCN(c4ccc(NS(=O)(=O)c5ccc(NC(CCN6CCC(C(=O)OCCCP(=O)(O)O)CC6)CSc6ccccc6)c(S(=O)(=O)C(F)(F)F)c5)cc4)CC3)c2)c(-c2ccc(Cl)cc2)n1C(C)C yielded a pIC50 (second compound 0.1 µM) of 7.42, a pIC50 (second compound 0.316 µM) of 7.50 and a pIC50 (second compound 1 µM) of 7.60. The pIC50 (second compound 3.16 µM) was 7.58, the pIC50 (second compound 10 µM) was 7.58 and the viability, T/C (second compound 0.1 µM, first compound 0.00316 µM) was 86.7%. It also gave a viability, T/C (second compound 0.1 µM, first compound 0.01 µM) of 72.9%, a viability, T/C [1] of 50.5% and a viability, T/C [2] of 35.9%. It also gave a viability, T/C [3] of 20.9%, a viability, T/C [4] of 10.2% and a viability, T/C (second compound 0.316 µM, first compound 0.00316 µM) of 86.4%. It also gave a viability, T/C (second compound 0.316 µM, first compound 0.01 µM) of 74.1%, a viability, T/C [5] of 48.5% and a viability, T/C [6] of 28.6%. For the same molecule, the viability, T/C [7] was 19.6%, the viability, T/C [8] was 8.57% and the viability, T/C (second compound 1 µM, first compound 0.00316 µM) was 90.1%. The viability, T/C (second compound 1 µM, first compound 0.01 µM) was 67%, the viability, T/C [9] was 45% and the viability, T/C [10] was 30.4%. It also gave a viability, T/C [11] of 17.7%, a viability, T/C [12] of 7.86% and a viability, T/C (second compound 3.16 µM, first compound 0.00316 µM) of 82.1%. It also gave a viability, T/C (second compound 3.16 µM, first compound 0.01 µM) of 67.9%, a viability, T/C (second compound 3.16 µM, first compound 0.0316 µM) of 42.4% and a viability, T/C (second compound 3.16 µM, first compound 0.1 µM) of 34.5%. It also gave a viability, T/C (second compound 3.16 µM, first compound 0.316 µM) of 16.2%, a viability, T/C (second compound 3.16 µM, first compound 1 µM) of 6.36% and a viability, T/C (second compound 10 µM, first compound 0.00316 µM) of 77.6%. For the same molecule, the viability, T/C (second compound 10 µM, first compound 0.01 µM) was 68.9%, the viability, T/C (second compound 10 µM, first compound 0.0316 µM) was 42.9% and the viability, T/C (second compound 10 µM, first compound 0.1 µM) was 30.7%. The viability, T/C (second compound 10 µM, first compound 0.316 µM) was 16.4% and the viability, T/C (second compound 10 µM, first compound 1 µM) was 3.47%.
Molecule Cc1nc(N2CCC3(CC2)COC(C)C3N)c(CO)nc1Sc1ccnc(N)c1Cl (configuration not stated) + Cc1c(S(C)(=O)=O)c(-c2cc(F)cc(N3CCN(c4ccc(NS(=O)(=O)c5ccc(NC(CCN6CCC(C(=O)OCCCP(=O)(O)O)CC6)CSc6ccccc6)c(S(=O)(=O)C(F)(F)F)c5)cc4)CC3)c2)c(-c2ccc(Cl)cc2)n1C(C)C has a pIC50 (second compound 0.1 µM) of less than 5.52, a pIC50 (second compound 0.316 µM) of less than 5.52 and a pIC50 (second compound 1 µM) of less than 5.52. For the same molecule, the pIC50 (second compound 3.16 µM) was less than 5.52, the pIC50 (second compound 10 µM) was less than 5.52 and the viability, T/C (second compound 0.1 µM, first compound 0.00949 µM) was 79.8%. The viability, T/C (second compound 0.1 µM, first compound 0.03 µM) was 83.8%, the viability, T/C (second compound 0.1 µM, first compound 0.0949 µM) was 88.9% and the viability, T/C (second compound 0.1 µM, first compound 0.3 µM) was 78.8%. It also gave a viability, T/C (second compound 0.1 µM, first compound 0.949 µM) of 84.9%, a viability, T/C (second compound 0.1 µM, first compound 3 µM) of 60.2% and a viability, T/C (second compound 0.316 µM, first compound 0.00949 µM) of 59.4%. The viability, T/C (second compound 0.316 µM, first compound 0.03 µM) was 71.4%, the viability, T/C (second compound 0.316 µM, first compound 0.0949 µM) was 60.7% and the viability, T/C (second compound 0.316 µM, first compound 0.3 µM) was 79.1%. For the same molecule, the viability, T/C (second compound 0.316 µM, first compound 0.949 µM) was 65.3%, the viability, T/C (second compound 0.316 µM, first compound 3 µM) was 61.7% and the viability, T/C (second compound 1 µM, first compound 0.00949 µM) was 68.1%. It also gave a viability, T/C (second compound 1 µM, first compound 0.03 µM) of 66.1%, a viability, T/C (second compound 1 µM, first compound 0.0949 µM) of 78.5% and a viability, T/C (second compound 1 µM, first compound 0.3 µM) of 51.7%. For the same molecule, the viability, T/C (second compound 1 µM, first compound 0.949 µM) was 67.5%, the viability, T/C (second compound 1 µM, first compound 3 µM) was 59.2% and the viability, T/C (second compound 3.16 µM, first compound 0.00949 µM) was 64.1%. The viability, T/C (second compound 3.16 µM, first compound 0.03 µM) was 53.9%, the viability, T/C (second compound 3.16 µM, first compound 0.0949 µM) was 65% and the viability, T/C (second compound 3.16 µM, first compound 0.3 µM) was 58.1%. It also gave a viability, T/C (second compound 3.16 µM, first compound 0.949 µM) of 63.3%, a viability, T/C (second compound 3.16 µM, first compound 3 µM) of 62.2% and a viability, T/C (second compound 10 µM, first compound 0.00949 µM) of 50.7%. For the same molecule, the viability, T/C (second compound 10 µM, first compound 0.03 µM) was 64.1%, the viability, T/C (second compound 10 µM, first compound 0.0949 µM) was 62.7% and the viability, T/C (second compound 10 µM, first compound 0.3 µM) was 48.3%. The viability, T/C (second compound 10 µM, first compound 0.949 µM) was 51.3% and the viability, T/C (second compound 10 µM, first compound 3 µM) was 54.6%.
C#Cc1c(F)ccc2cc(O)cc(-c3ncc4c(N5CC6CCC(C5)N6)nc(OCC56CCCN5CC(F)C6)nc4c3F)c12 (configuration not stated) + CNC(C)C(=O)NC1CN(S(=O)(=O)c2cccc(S(=O)(=O)N3CCC4CCC(C(=O)NC(c5ccccc5)c5ccccc5)N4C(=O)C(NC(=O)C(C)NC)C3)c2)CCC2CCC(C(=O)NC(c3ccccc3)c3ccccc3)N2C1=O was tested, and the pIC50 (second compound 0.00316 µM) was less than 5.00, the pIC50 (second compound 0.01 µM) was 5.16 and the pIC50 (second compound 0.0316 µM) was 5.05. It also gave a pIC50 (second compound 0.1 µM) of less than 5.00, a pIC50 (second compound 0.316 µM) of 5.02 and a pIC50 (second compound 1 µM) of 5.13. It also gave a viability, T/C (second compound 0.00316 µM, first compound 0.0316 µM) of 97.9%, a viability, T/C (second compound 0.00316 µM, first compound 0.1 µM) of 92.2% and a viability, T/C (second compound 0.00316 µM, first compound 0.316 µM) of 92.2%. The viability, T/C (second compound 0.00316 µM, first compound 1 µM) was 109%, the viability, T/C (second compound 0.00316 µM, first compound 3.16 µM) was 96.7% and the viability, T/C (second compound 0.00316 µM, first compound 10 µM) was 62.2%. The viability, T/C (second compound 0.01 µM, first compound 0.0316 µM) was 100%, the viability, T/C (second compound 0.01 µM, first compound 0.1 µM) was 88% and the viability, T/C (second compound 0.01 µM, first compound 0.316 µM) was 94%. The viability, T/C (second compound 0.01 µM, first compound 1 µM) was 98.1%, the viability, T/C (second compound 0.01 µM, first compound 3.16 µM) was 88.8% and the viability, T/C (second compound 0.01 µM, first compound 10 µM) was 32%. For the same molecule, the viability, T/C (second compound 0.0316 µM, first compound 0.0316 µM) was 100%, the viability, T/C (second compound 0.0316 µM, first compound 0.1 µM) was 96.3% and the viability, T/C (second compound 0.0316 µM, first compound 0.316 µM) was 95.2%. The viability, T/C (second compound 0.0316 µM, first compound 1 µM) was 94.3%, the viability, T/C (second compound 0.0316 µM, first compound 3.16 µM) was 94.2% and the viability, T/C (second compound 0.0316 µM, first compound 10 µM) was 45.4%. The viability, T/C [1] was 100%, the viability, T/C [2] was 91.7% and the viability, T/C [3] was 93.6%. For the same molecule, the viability, T/C [4] was 88.5%, the viability, T/C (second compound 0.1 µM, first compound 3.16 µM) was 85.1% and the viability, T/C (second compound 0.1 µM, first compound 10 µM) was 63%. For the same molecule, the viability, T/C [5] was 102%, the viability, T/C [6] was 93.9% and the viability, T/C [7] was 88.5%. The viability, T/C [8] was 91.2%, the viability, T/C (second compound 0.316 µM, first compound 3.16 µM) was 84.9% and the viability, T/C (second compound 0.316 µM, first compound 10 µM) was 48.1%. The viability, T/C [9] was 91.9%, the viability, T/C [10] was 90.8% and the viability, T/C [11] was 96.2%. The viability, T/C [12] was 86.1%, the viability, T/C (second compound 1 µM, first compound 3.16 µM) was 86.6% and the viability, T/C (second compound 1 µM, first compound 10 µM) was 37.5%.
